For orientation: IC50 means the point on the concentration scale where inhibition reaches its midpoint. Low values mean greater potency in that assay, high ones weaker potency in that assay. As usually defined, the Inhibition is the change of the read-out against control, counted positive when it falls. As a reminder, the inhibition is the drop in the measured response relative to a control, in per cent.

This is an account of results in ChEMBL document CHEMBL1137419, “Identification of potent 5-pyrimidinyl-2-aminothiazole CDK4, 6 inhibitors with significant selectivity over CDK1, 2, 5, 7, and 9” (Bioorg Med Chem Lett, 2006).

Experiment [1] has as its target Cyclin-dependent kinase 2 (Homo sapiens, UniProt P24941). The experiment in a line: Inhibition of CDK2.
Experiment [2] concerns the target Cyclin-dependent kinase 1 (Homo sapiens, UniProt P06493). The experiment in a line: Inhibition of CDK1.
Experiment [3] addresses Cyclin-dependent kinase 7 (Homo sapiens, UniProt P50613). The experiment is described as follows: Inhibition of CDK7.
For experiment [4], the target named is Cyclin-dependent kinase 9 (Homo sapiens, UniProt P50750). The experiment in a line: Inhibition of CDK9.
Cyclin-dependent kinase 9, sequence (P50750 whole entry): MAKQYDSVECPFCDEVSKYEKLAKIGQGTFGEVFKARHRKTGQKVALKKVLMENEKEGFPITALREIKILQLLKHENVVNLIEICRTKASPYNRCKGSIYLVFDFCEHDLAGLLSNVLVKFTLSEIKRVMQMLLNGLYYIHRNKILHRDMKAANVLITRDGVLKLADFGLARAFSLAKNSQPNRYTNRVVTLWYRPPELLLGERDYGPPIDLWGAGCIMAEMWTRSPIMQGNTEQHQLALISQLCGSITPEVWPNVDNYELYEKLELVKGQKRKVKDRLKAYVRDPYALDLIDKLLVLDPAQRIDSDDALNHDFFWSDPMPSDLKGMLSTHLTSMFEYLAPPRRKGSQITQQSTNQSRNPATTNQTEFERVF
The target of experiment [5] is Cyclin-dependent kinase 5 (Homo sapiens, UniProt Q00535). The experiment in a line: Inhibition of CDK5.
Cyclin-dependent kinase 5, sequence (Q00535 whole entry): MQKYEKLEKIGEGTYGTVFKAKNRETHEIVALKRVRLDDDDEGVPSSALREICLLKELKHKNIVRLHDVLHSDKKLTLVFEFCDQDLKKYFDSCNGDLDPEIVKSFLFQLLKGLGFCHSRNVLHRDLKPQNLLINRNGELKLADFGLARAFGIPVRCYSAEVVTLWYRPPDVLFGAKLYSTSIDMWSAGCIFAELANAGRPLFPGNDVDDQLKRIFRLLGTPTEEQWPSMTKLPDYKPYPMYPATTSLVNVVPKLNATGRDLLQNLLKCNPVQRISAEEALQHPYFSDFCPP
Experiment [6] concerns the target T1, Cyclin-dependent kinase 4 (Homo sapiens, UniProt P11802). The experiment in a line: Inhibition of CDK4.
The subject of experiment [7] is EOL1. The experiment is described as follows: Cell cycle arrest in Eol1 cells by accumulation at G1 phase. In kind it is functional, Homo sapiens.
Experiment [8] has as its system EOL1. The experiment in a line: Inhibition of pRb phosphorylation in Eol1 xenografted in nude rat at 510 nM, iv after 24 hrs. In kind it is functional, Homo sapiens.
Experiment [9] addresses T1, Cyclin-dependent kinase 4. The experiment is described as follows: Inhibition of pRb phosphorylation at Ser780 residue by CDK4. Format: functional. Conditions: concentration not given here.
Experiment [10] has as its target Cyclin-dependent kinase 6 (Homo sapiens) (UniProt Q00534). The experiment in a line: Inhibition of pRb phosphorylation at Ser780 residue by CDK6. Format: functional. The settings on record: concentration not given here.
The subject of experiment [11] is EOL1. The experiment in a line: Inhibition of BrdU incorporation in Eol1 xenografted in nude rat at 510 nM, iv after 24 hrs. Format: functional, Homo sapiens. (In general: Dividing cells build labelled thymidine or BrdU into new DNA.)

Cyclin-dependent kinase 7, sequence (P50613 whole entry): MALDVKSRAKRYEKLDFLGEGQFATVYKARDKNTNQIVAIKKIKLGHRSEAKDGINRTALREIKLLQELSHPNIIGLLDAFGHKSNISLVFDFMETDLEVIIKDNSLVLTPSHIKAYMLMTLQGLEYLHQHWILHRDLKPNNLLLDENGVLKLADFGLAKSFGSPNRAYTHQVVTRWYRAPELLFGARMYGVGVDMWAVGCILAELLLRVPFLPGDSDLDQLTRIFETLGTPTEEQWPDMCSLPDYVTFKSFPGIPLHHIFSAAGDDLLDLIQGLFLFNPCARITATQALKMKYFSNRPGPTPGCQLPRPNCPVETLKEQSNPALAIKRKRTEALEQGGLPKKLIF
T1 sequence (P11802 whole entry): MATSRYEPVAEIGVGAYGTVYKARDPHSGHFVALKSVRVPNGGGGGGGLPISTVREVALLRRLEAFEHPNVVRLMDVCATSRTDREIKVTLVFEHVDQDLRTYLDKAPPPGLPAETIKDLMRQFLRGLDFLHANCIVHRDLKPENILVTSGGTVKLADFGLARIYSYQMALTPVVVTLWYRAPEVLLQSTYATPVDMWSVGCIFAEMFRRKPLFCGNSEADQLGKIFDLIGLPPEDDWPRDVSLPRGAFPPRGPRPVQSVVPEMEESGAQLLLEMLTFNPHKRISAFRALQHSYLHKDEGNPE
Cyclin-dependent kinase 1, sequence (P06493 whole entry): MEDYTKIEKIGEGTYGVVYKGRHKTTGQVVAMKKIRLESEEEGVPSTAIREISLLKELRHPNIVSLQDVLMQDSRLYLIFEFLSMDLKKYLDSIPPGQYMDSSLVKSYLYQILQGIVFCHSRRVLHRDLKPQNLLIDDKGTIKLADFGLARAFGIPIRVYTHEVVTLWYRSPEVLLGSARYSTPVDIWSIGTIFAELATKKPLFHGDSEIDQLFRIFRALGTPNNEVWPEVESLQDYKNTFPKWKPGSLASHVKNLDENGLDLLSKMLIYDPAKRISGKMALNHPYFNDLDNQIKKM
Cyclin-dependent kinase 6 (Homo sapiens), sequence (Q00534 whole entry): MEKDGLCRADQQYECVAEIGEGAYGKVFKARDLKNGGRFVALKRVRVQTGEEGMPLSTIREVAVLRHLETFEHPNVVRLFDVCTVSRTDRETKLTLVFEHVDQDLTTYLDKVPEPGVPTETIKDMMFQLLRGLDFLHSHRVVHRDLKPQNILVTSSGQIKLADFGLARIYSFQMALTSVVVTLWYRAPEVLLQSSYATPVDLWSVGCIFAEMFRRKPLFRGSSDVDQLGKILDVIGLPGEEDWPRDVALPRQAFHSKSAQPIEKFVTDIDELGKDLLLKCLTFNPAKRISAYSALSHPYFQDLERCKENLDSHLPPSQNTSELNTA

With `Cc1cnc(OC2CCCCC2)nc1-c1cnc(Nc2ccccn2)s1`, the IC50 in experiment [1] is 270 nM; in [2], greater than 1000 nM; in experiment [3] it was 190 nM; in experiment [4] it was 26 nM; in [5], greater than 10000 nM; in experiment [6] it was 13 nM.

`Cc1cc(-c2cnc(Nc3cnc(CN4CCN(C)CC4)cn3)s2)nc(OC2CCCCC2)n1`: the Activity with EOL1 [7] was found to be 90%. Also, the Inhibition with EOL1 [8] was 99%; in the experiment on EOL1 [11], 91%. The inhibition in [9] and in [10] was greater than 80% in each case. In [5], this molecule yielded an IC50 of 3000 nM.

`c1ccc(Nc2ncc(-c3ccnc(OC4CCCCC4)n3)s2)nc1`: the IC50 came out at 14 nM in experiment [1]; 24 nM in experiment [2]; 20 nM in experiment [3]; 2.5 nM in [4]; 34 nM in experiment [5]; 4.2 nM in experiment [6].

Turning to `Cc1cc(-c2cnc(Nc3ccccn3)s2)nc(OC2CCCCC2)n1`, the IC50 is greater than 10000 nM in experiment [1]; greater than 10000 nM in experiment [2]; greater than 10000 nM in [3]; greater than 10000 nM in [4]; greater than 10000 nM in experiment [5]; 34 nM in experiment [6].
